# Assays:
# [1] = test system: AT (DNA, duplex) ATATATATATAT; test: luminescence titration 750 nm, Bard fit; details: Na+ (20 mM sodium phosphate), 20 mM sodium phosphate pH 7.0, 298 K, per base
# [2] = test system: AT (DNA, duplex) ATATATATATAT; test: UV-visible absorbance titration 415 nm, Bard fit; details: Na+ (20 mM sodium phosphate), 20 mM sodium phosphate pH 7.0, 298 K, per base
# [3] = test system: (5′-CCGGTACCGG)2 (TA step) (DNA, duplex) CCGGTACCGG; test: UV-visible absorbance titration 355 nm, Bard fit; details: Na+ (20 mM sodium phosphate); 20 mM sodium phosphate pH 7.0, 298 K; site size s 3.17 (±0.07); per base
# [4] = test system: (5′-CCGGTACCGG)2 (TA step) (DNA, duplex) CCGGTACCGG; test: luminescence titration 750 nm, Bard fit; details: Na+ (20 mM sodium phosphate); 20 mM sodium phosphate pH 7.0, 298 K; s 7.6; caption says luminescence 750 nm, column head 415 nm absorbance; per base
# [5] = test system: AT (DNA, duplex) ATATATATATAT; test: UV-visible absorbance titration 355 nm, Bard fit; details: Na+ (20 mM sodium phosphate), 20 mM sodium phosphate pH 7.0, 298 K, per base
# [6] = test system: (5′-CCGGATCCGG)2 (AT step) (DNA, duplex) CCGGATCCGG; test: luminescence titration 750 nm, Bard fit; details: Na+ (20 mM sodium phosphate); 20 mM sodium phosphate pH 7.0, 298 K; s 5.5; caption says luminescence 750 nm, column head 415 nm absorbance; per base
# [7] = test system: (5′-CCGGATCCGG)2 (AT step) (DNA, duplex) CCGGATCCGG; test: UV-visible absorbance titration 355 nm, Bard fit; details: Na+ (20 mM sodium phosphate); 20 mM sodium phosphate pH 7.0, 298 K; site size s 3.5 (±0.7); per base
Kb ([1]; site size s 3.8 (±0.1)),Kb ([1]; site size s 5.0 (±0.1)),Kb ([2]; site size s 4.5 (±0.1)),Kb ([2]; site size s 6.0 (±0.2)),Kb [3],Kb ([1]; site size s 4.6 (±0.1)),Kb ([1]; site size s 7.7 (±0.08)),Kb [4],Kb ([5]; site size s 4.4 (±0.1)),Kb ([5]; site size s 5.6 (±0.1)),Kb [6],Kb [7],SMILES
8.5 (±0.5) × 10^6 M^–1,1.1 (±0.3) × 10^7 M^–1,8.7 (±1.2) × 10^6 M^–1,5.1 (±1.6) × 10^6 M^–1,–,–,–,–,–,–,–,–,[Os+2].c1ccc2nc3c4cccnc4c4ncccc4c3nc2c1.c1cnc2c(ccc3nccnc32)n1.c1cnc2c(ccc3nccnc32)n1
–,–,–,–,2.2 (±0.4) × 10^6 M^–1,4.5 (±1.3) × 10^6 M^–1,1.4 (±0.4) × 10^7 M^–1,1.4 (±0.3) × 10^6 M^–1,2.0 (±0.3) × 10^6 M^–1,5.0 (±0.8) × 10^6 M^–1,1.0 (±0.2) × 10^6 M^–1,3.8 (±1.5) × 10^6 M^–1,[Os+2].c1cnc2c(ccc3nccnc32)n1.c1cnc2c(ccc3nccnc32)n1.c1cnc2nc3c4cccnc4c4ncccc4c3nc2c1

# Reference: publication PMC9516684 (2022)
